Reference: ChEMBL document CHEMBL1201862, “PubChem BioAssay data set” (2004)
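Briefly, cells in 96-well plates were exposed to five compound concentrations for 48 h, and endpoints were estimated by linear interpolation. Abbreviation: GI50, concentration required for 50% inhibition of growth.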 Activity calls are given as the source filed them. Cut-off read from the data, not from the text of the source: active = GI50 up to about 1.1 µM and inactive = higher.

Columns and labels:
Assay in all cases: NCI anticancer screen, dose series, 48 h
SF-539 = system: SF-539
SNB-75 = system: SNB-75
MDA-N = system: MDA-N
NCI/ADR-RES = system: NCI/ADR-RES
NCI-H522 = system: NCI-H522
OVCAR-4 = system: OVCAR-4
HCC 2998 = system: HCC 2998
HOP-92 = system: HOP-92
HCT-116 = system: HCT-116
HL-60 = system: HL-60
SF-295 = system: SF-295
RXF 393 = system: RXF 393
SF-268 = system: SF-268
ACHN = system: ACHN
A549 = system: A549
OVCAR-8 = system: OVCAR-8
MOLT-4 = system: MOLT-4
U-251 = system: U-251
RPMI-8226 = system: RPMI-8226
EKVX = system: EKVX
A498 = system: A498
Hs-578T = system: Hs-578T
IGROV-1 = system: IGROV-1
SK-MEL-28 = system: SK-MEL-28
PC-3 = system: PC-3
NCI-H23 = system: NCI-H23
MDA-MB-435 = system: MDA-MB-435
OVCAR-5 = system: OVCAR-5
786-0 = system: 786-0
CCRF-CEM = system: CCRF-CEM
HT-29 = system: HT-29
NCI-H460 = system: NCI-H460
HOP-62 = system: HOP-62
SR = system: SR
SN12C = system: SN12C
LOX IMVI = system: LOX IMVI
TK-10 = system: TK-10
SW-620 = system: SW-620
SK-MEL-5 = system: SK-MEL-5
Malme-3M = system: Malme-3M
NCI-H226 = system: NCI-H226
K562 = system: K562
MCF7 = system: MCF7
UACC-257 = system: UACC-257
HCT-15 = system: HCT-15
SNB-19 = system: SNB-19
OVCAR-3 = system: OVCAR-3
DU-145 = system: DU-145

`Nc1nc(Cl)cc(OCC2(CO)CCCCC2)n1` was tested, and the GI50 (SF-539) was > 100 µM (inactive), the GI50 (SNB-75) was 66.1 µM (inactive) and the GI50 (MDA-N) was > 100 µM (inactive). The GI50 (NCI/ADR-RES) was > 100 µM (inactive), the GI50 (NCI-H522) was 53.1 µM (inactive) and the GI50 (OVCAR-4) was > 100 µM (inactive). For the same molecule, the GI50 (HCC 2998) was 24.8 µM (inactive), the GI50 (HOP-92) was 40.7 µM (inactive) and the GI50 (HCT-116) was > 100 µM (inactive). The GI50 (HL-60) was 85.7 µM (inactive), the GI50 (SF-295) was > 100 µM (inactive) and the GI50 (RXF 393) was 63.7 µM (inactive). For the same molecule, the GI50 (SF-268) was > 100 µM (inactive), the GI50 (ACHN) was > 100 µM (inactive) and the GI50 (A549) was 69.7 µM (inactive). For the same molecule, the GI50 (OVCAR-8) was 96.6 µM (inactive), the GI50 (MOLT-4) was > 100 µM (inactive) and the GI50 (U-251) was 86.5 µM (inactive). For the same molecule, the GI50 (RPMI-8226) was 60.5 µM (inactive), the GI50 (EKVX) was 84.7 µM (inactive) and the GI50 (A498) was 40.7 µM (inactive). For the same molecule, the GI50 (Hs-578T) was > 100 µM (inactive), the GI50 (IGROV-1) was > 100 µM (inactive) and the GI50 (SK-MEL-28) was > 100 µM (inactive). For the same molecule, the GI50 (PC-3) was > 100 µM (inactive), the GI50 (NCI-H23) was > 100 µM (inactive) and the GI50 (MDA-MB-435) was > 100 µM (inactive). The GI50 (OVCAR-5) was > 100 µM (inactive), the GI50 (786-0) was > 100 µM (inactive) and the GI50 (CCRF-CEM) was > 100 µM (inactive). For the same molecule, the GI50 (HT-29) was > 100 µM (inactive), the GI50 (NCI-H460) was > 100 µM (inactive) and the GI50 (HOP-62) was > 100 µM (inactive). The GI50 (SR) was > 100 µM (inactive), the GI50 (SN12C) was > 100 µM (inactive) and the GI50 (LOX IMVI) was > 100 µM (inactive). For the same molecule, the GI50 (TK-10) was > 100 µM (inactive), the GI50 (SW-620) was > 100 µM (inactive) and the GI50 (SK-MEL-5) was 40.9 µM (inactive). For the same molecule, the GI50 (Malme-3M) was > 100 µM (inactive), the GI50 (NCI-H226) was > 100 µM (inactive) and the GI50 (K562) was > 10 µM (inactive). For the same molecule, the GI50 (MCF7) was 50.5 µM (inactive), the GI50 (UACC-257) was 78.7 µM (inactive) and the GI50 (HCT-15) was 24.5 µM. The GI50 (SNB-19) was > 100 µM (inactive), the GI50 (OVCAR-3) was > 100 µM (inactive) and the GI50 (DU-145) was > 100 µM (inactive).
